Results: ChEMBL document CHEMBL1212885, “Identification and characterization of acidic mammalian chitinase inhibitors” (J Med Chem, 2010)

Legend:
[1] = Inhibition of chitotriosidase after 60 mins
Mus musculus [2] = assay: Antiallergic activity in C57BL/6 mouse assessed as reduction of HDM/CRA-induced chitinase activity in bronchoalveolar lavage fluid at 50 mg/kg, po administered twice daily; type: functional, C57BL6, Lung; design: scale not given: the % may be the effect or the level left
[3] = target: T1, Acidic mammalian chitinase (Homo sapiens, UniProt Q9BZP6); assay: Inhibition of acidic mammalian chitinase after 60 mins
[4] = target: T1, Acidic mammalian chitinase; assay: Binding affinity to biotinylated-acidic mammalian chitinase
Mus musculus [5] = assay: Antiallergic activity in C57BL/6 mouse assessed as reduction of HDM/CRA-induced chitinase activity in bronchoalveolar lavage fluid at 10 mg/kg, ip administered once daily; type: functional, C57BL6, Lung; design: scale not given: the % may be the effect or the level left; settings: route intraperitoneal

T1 sequence (Q9BZP6 whole entry): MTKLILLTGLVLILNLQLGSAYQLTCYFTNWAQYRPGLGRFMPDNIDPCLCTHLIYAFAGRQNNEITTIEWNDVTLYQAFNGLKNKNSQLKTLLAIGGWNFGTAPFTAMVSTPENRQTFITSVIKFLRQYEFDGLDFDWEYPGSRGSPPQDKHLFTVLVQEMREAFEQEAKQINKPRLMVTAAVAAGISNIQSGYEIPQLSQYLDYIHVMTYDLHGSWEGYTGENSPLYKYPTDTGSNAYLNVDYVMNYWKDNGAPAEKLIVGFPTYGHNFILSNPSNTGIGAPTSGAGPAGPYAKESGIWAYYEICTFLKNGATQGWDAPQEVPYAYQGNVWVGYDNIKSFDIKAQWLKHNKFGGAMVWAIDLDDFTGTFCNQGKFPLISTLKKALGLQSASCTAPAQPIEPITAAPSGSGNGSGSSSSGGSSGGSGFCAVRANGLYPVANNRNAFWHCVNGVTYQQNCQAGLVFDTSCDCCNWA

Row | SMILES | IC50 [1] [µM] | further results
1 | Nc1n[nH]c(N2CCN(CCOc3ccc(Br)cc3)CC2)n1 | 4.23 | Activity (Mus musculus [2]): 43%
2 | NC(=O)c1cccnc1N1CCNCC1 | 90.1 | IC50 [3]: 102 µM; Kd [4]: 141 µM
3 | C[C@@H]1C[C@H]2[C@@H]3CCC4=CC(=O)C=C[C@]4(C)[C@@]3(F)[C@@H](O)C[C@]2(C)[C@@]1(O)C(=O)CO [DEXAMETHASONE] |  | Activity (Mus musculus [5]): 60%

Second part, led by results:

Row | IC50 [1] [µM] | SMILES | further results
4 | 1.34 | Cc1[nH]c2ccccc2c1CN1CCN(c2ccccn2)CC1 | 
5 | > 100 | N=C(N)N1CCN(c2ccc(Cl)cc2)CC1 | 
